# Laboratory results published in the NIST ThermoML archive (doi:10.1021/je700740e).
# Numbers after ± are expanded uncertainties.
# Conditions: Liquid; for mass density: Vibrating tube method; for viscosity: Vibrating wire viscometry
compound,measurement,setting,value
CCOC(=O)CCCCC(=O)OCC [diethyl hexanedioate],mass density,"303.15 K, 100 kPa",998.842 ± 2 kg/m3
same,viscosity,"303.15 K, 100 kPa",2.786 ± 0.059 mPa·s
same,mass density,"303.15 K, 4520 kPa",1001.81 ± 2 kg/m3
same,viscosity,"303.15 K, 4520 kPa",2.909 ± 0.062 mPa·s
same,mass density,"303.15 K, 9610 kPa",1005.24 ± 2 kg/m3
same,viscosity,"303.15 K, 9610 kPa",3.061 ± 0.065 mPa·s
same,mass density,"303.15 K, 14700 kPa",1008.51 ± 2 kg/m3
same,viscosity,"303.15 K, 14700 kPa",3.226 ± 0.068 mPa·s
same,mass density,"303.15 K, 19790 kPa",1012.52 ± 2 kg/m3
same,viscosity,"303.15 K, 19790 kPa",3.343 ± 0.071 mPa·s
same,mass density,"313.15 K, 100 kPa",989.86 ± 2 kg/m3
same,viscosity,"313.15 K, 100 kPa",2.257 ± 0.048 mPa·s
same,mass density,"313.15 K, 4520 kPa",993.535 ± 2 kg/m3
same,viscosity,"313.15 K, 4520 kPa",2.335 ± 0.05 mPa·s
same,mass density,"313.15 K, 9630 kPa",996.693 ± 2 kg/m3
same,viscosity,"313.15 K, 9630 kPa",2.472 ± 0.053 mPa·s
same,mass density,"313.15 K, 14750 kPa",1000.42 ± 2 kg/m3
same,viscosity,"313.15 K, 14750 kPa",2.589 ± 0.055 mPa·s
same,mass density,"313.15 K, 19890 kPa",1003.55 ± 2 kg/m3
same,viscosity,"313.15 K, 19890 kPa",2.726 ± 0.058 mPa·s
same,mass density,"323.15 K, 100 kPa",981.395 ± 2 kg/m3
same,viscosity,"323.15 K, 100 kPa",1.846 ± 0.039 mPa·s
same,mass density,"323.15 K, 4520 kPa",984.72 ± 2 kg/m3
same,viscosity,"323.15 K, 4520 kPa",1.932 ± 0.041 mPa·s
same,mass density,"323.15 K, 9600 kPa",988.74 ± 2 kg/m3
same,viscosity,"323.15 K, 9600 kPa",2.021 ± 0.043 mPa·s
same,mass density,"323.15 K, 14690 kPa",992.273 ± 2 kg/m3
same,viscosity,"323.15 K, 14690 kPa",2.126 ± 0.045 mPa·s
same,mass density,"323.15 K, 19710 kPa",995.581 ± 2 kg/m3
same,viscosity,"323.15 K, 19710 kPa",2.23 ± 0.048 mPa·s
same,mass density,"333.15 K, 100 kPa",971.597 ± 2 kg/m3
same,viscosity,"333.15 K, 100 kPa",1.58 ± 0.034 mPa·s
same,mass density,"333.15 K, 4520 kPa",975.516 ± 2 kg/m3
same,viscosity,"333.15 K, 4520 kPa",1.642 ± 0.035 mPa·s
same,mass density,"333.15 K, 9630 kPa",979.685 ± 2 kg/m3
same,viscosity,"333.15 K, 9630 kPa",1.716 ± 0.037 mPa·s
same,mass density,"333.15 K, 14710 kPa",983.483 ± 2 kg/m3
same,viscosity,"333.15 K, 14710 kPa",1.802 ± 0.039 mPa·s
same,mass density,"333.15 K, 19710 kPa",987.107 ± 2 kg/m3
same,viscosity,"333.15 K, 19710 kPa",1.886 ± 0.04 mPa·s
same,mass density,"343.15 K, 100 kPa",962.622 ± 1.9 kg/m3
same,viscosity,"343.15 K, 100 kPa",1.35 ± 0.029 mPa·s
same,mass density,"343.15 K, 4510 kPa",966.544 ± 2 kg/m3
same,viscosity,"343.15 K, 4510 kPa",1.407 ± 0.03 mPa·s
same,mass density,"343.15 K, 9600 kPa",970.932 ± 2 kg/m3
same,viscosity,"343.15 K, 9600 kPa",1.471 ± 0.032 mPa·s
same,mass density,"343.15 K, 14700 kPa",975.031 ± 2 kg/m3
same,viscosity,"343.15 K, 14700 kPa",1.542 ± 0.033 mPa·s
same,mass density,"343.15 K, 19700 kPa",978.932 ± 2 kg/m3
same,viscosity,"343.15 K, 19700 kPa",1.608 ± 0.035 mPa·s
same,mass density,"353.15 K, 100 kPa",953.224 ± 1.9 kg/m3
same,viscosity,"353.15 K, 100 kPa",1.179 ± 0.026 mPa·s
same,mass density,"353.15 K, 4520 kPa",957.353 ± 1.9 kg/m3
same,viscosity,"353.15 K, 4520 kPa",1.227 ± 0.027 mPa·s
same,mass density,"353.15 K, 9620 kPa",962.118 ± 1.9 kg/m3
same,viscosity,"353.15 K, 9620 kPa",1.28 ± 0.028 mPa·s
same,mass density,"353.15 K, 14710 kPa",966.479 ± 2 kg/m3
same,viscosity,"353.15 K, 14710 kPa",1.338 ± 0.029 mPa·s
same,mass density,"353.15 K, 19680 kPa",970.392 ± 2 kg/m3
same,viscosity,"353.15 K, 19680 kPa",1.402 ± 0.03 mPa·s
same,mass density,"363.15 K, 100 kPa",943.203 ± 1.9 kg/m3
same,viscosity,"363.15 K, 100 kPa",1.041 ± 0.023 mPa·s
same,mass density,"363.15 K, 4520 kPa",948.203 ± 1.9 kg/m3
same,viscosity,"363.15 K, 4520 kPa",1.078 ± 0.023 mPa·s
same,mass density,"363.15 K, 9610 kPa",953.106 ± 1.9 kg/m3
same,viscosity,"363.15 K, 9610 kPa",1.129 ± 0.025 mPa·s
same,mass density,"363.15 K, 14700 kPa",957.919 ± 1.9 kg/m3
same,viscosity,"363.15 K, 14700 kPa",1.174 ± 0.025 mPa·s
same,mass density,"363.15 K, 19710 kPa",962.125 ± 1.9 kg/m3
same,viscosity,"363.15 K, 19710 kPa",1.226 ± 0.027 mPa·s
same,mass density,"373.15 K, 100 kPa",934.753 ± 1.9 kg/m3
same,viscosity,"373.15 K, 100 kPa",0.914 ± 0.02 mPa·s
same,mass density,"373.15 K, 4520 kPa",939.138 ± 1.9 kg/m3
same,viscosity,"373.15 K, 4520 kPa",0.956 ± 0.021 mPa·s
same,mass density,"373.15 K, 9620 kPa",944.359 ± 1.9 kg/m3
same,viscosity,"373.15 K, 9620 kPa",1 ± 0.022 mPa·s
same,mass density,"373.15 K, 14680 kPa",948.986 ± 1.9 kg/m3
same,viscosity,"373.15 K, 14680 kPa",1.046 ± 0.023 mPa·s
same,mass density,"373.15 K, 19910 kPa",953.741 ± 1.9 kg/m3
same,viscosity,"373.15 K, 19910 kPa",1.096 ± 0.024 mPa·s
Cc1ccccc1 [toluene],mass density,"298.15 K, 100 kPa",862.5 ± 1.7 kg/m3
same,viscosity,"298.15 K, 100 kPa",0.555 ± 0.012 mPa·s
same,mass density,"298.15 K, 2300 kPa",864.389 ± 1.7 kg/m3
same,viscosity,"298.15 K, 2300 kPa",0.569 ± 0.013 mPa·s
same,mass density,"298.15 K, 4400 kPa",865.888 ± 1.7 kg/m3
same,viscosity,"298.15 K, 4400 kPa",0.58 ± 0.013 mPa·s
same,mass density,"298.15 K, 7430 kPa",868.038 ± 1.7 kg/m3
same,viscosity,"298.15 K, 7430 kPa",0.593 ± 0.013 mPa·s
same,mass density,"298.15 K, 10400 kPa",870.54 ± 1.8 kg/m3
same,viscosity,"298.15 K, 10400 kPa",0.597 ± 0.013 mPa·s
same,mass density,"298.15 K, 12470 kPa",871.736 ± 1.8 kg/m3
same,viscosity,"298.15 K, 12470 kPa",0.613 ± 0.014 mPa·s
same,mass density,"298.15 K, 14490 kPa",873.496 ± 1.8 kg/m3
same,viscosity,"298.15 K, 14490 kPa",0.617 ± 0.014 mPa·s
same,mass density,"323.15 K, 120 kPa",840.467 ± 1.7 kg/m3
same,viscosity,"323.15 K, 120 kPa",0.425 ± 0.01 mPa·s
same,mass density,"323.15 K, 3340 kPa",843.459 ± 1.7 kg/m3
same,viscosity,"323.15 K, 3340 kPa",0.431 ± 0.01 mPa·s
same,mass density,"323.15 K, 6340 kPa",846.144 ± 1.7 kg/m3
same,viscosity,"323.15 K, 6340 kPa",0.448 ± 0.01 mPa·s
same,mass density,"323.15 K, 9600 kPa",848.793 ± 1.7 kg/m3
same,viscosity,"323.15 K, 9600 kPa",0.461 ± 0.011 mPa·s
same,mass density,"323.15 K, 12750 kPa",851.586 ± 1.7 kg/m3
same,viscosity,"323.15 K, 12750 kPa",0.464 ± 0.011 mPa·s
same,mass density,"323.15 K, 14770 kPa",853.276 ± 1.7 kg/m3
same,viscosity,"323.15 K, 14770 kPa",0.466 ± 0.011 mPa·s
